# Molecular target: T1, Tyrosine-protein phosphatase non-receptor type 11 (Homo sapiens, UniProt Q06124)
# T1 sequence (Q06124 whole entry): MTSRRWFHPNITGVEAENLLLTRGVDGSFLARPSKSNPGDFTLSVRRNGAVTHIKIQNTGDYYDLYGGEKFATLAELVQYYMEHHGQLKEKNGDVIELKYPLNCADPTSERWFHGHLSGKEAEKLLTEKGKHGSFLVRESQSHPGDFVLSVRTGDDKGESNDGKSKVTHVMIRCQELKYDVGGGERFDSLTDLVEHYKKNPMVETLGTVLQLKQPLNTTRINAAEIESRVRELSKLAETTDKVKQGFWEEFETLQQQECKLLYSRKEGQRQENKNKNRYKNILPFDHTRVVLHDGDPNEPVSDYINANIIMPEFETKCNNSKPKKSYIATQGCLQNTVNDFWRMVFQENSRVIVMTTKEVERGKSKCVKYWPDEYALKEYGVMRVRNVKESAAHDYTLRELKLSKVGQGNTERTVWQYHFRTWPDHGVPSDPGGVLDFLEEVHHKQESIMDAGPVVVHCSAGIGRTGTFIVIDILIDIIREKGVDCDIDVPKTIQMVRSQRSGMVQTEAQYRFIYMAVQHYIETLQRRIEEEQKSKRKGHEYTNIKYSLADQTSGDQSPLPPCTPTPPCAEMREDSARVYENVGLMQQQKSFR
# Assay: Negative allosteric modulator activity at SHP2 (unknown origin)
smiles,measurement,value
C[C@@H]1CN(c2ncc(-c3cccc(Cl)c3Cl)c(N)n2)C[C@H](C)N1,IC50,12 µM

# — ChEMBL document CHEMBL4428068, “Allosteric Modulation of Phosphatase Activity May Redefine Therapeutic Value” (J Med Chem, 2016)
